This note sets out measurements from ChEMBL document CHEMBL4033668, “Inhibitors of cytochrome P450 (CYP) 1B1” (Eur J Med Chem, 2017).

Each structure is given as a SMILES string. pIC50, pKi: −log10 of the molar value.

The target in series [1] is T1, Cytochrome P450 1B1 (Homo sapiens, UniProt Q16678).
T1 sequence (Q16678 whole entry): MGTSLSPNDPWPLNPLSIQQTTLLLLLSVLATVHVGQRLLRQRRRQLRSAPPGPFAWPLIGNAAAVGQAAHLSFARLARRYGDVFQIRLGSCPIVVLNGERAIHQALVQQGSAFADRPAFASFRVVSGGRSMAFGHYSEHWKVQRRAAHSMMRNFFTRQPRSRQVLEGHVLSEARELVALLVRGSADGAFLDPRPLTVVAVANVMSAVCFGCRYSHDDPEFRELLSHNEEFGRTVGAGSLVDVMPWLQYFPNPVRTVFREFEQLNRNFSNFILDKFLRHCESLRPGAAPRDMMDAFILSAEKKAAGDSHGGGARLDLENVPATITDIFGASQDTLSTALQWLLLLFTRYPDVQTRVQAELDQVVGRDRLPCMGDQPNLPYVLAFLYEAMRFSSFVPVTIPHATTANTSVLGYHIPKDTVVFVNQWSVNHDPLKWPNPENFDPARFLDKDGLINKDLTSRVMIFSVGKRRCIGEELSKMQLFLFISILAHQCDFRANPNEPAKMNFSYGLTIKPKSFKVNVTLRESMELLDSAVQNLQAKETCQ
The experiment in a line: Inhibition of human CYP1B1 expressed in Escherichia coli DH5alpha coexpressing human NADPH P450 reductase using 7-ethoxyresorufin as substrate in presence of NADPH by fluorimetric analysis.

Series [2] has as its target T2, Cytochrome P450 1A1 (Homo sapiens, UniProt P04798).
T2 sequence (P04798 whole entry): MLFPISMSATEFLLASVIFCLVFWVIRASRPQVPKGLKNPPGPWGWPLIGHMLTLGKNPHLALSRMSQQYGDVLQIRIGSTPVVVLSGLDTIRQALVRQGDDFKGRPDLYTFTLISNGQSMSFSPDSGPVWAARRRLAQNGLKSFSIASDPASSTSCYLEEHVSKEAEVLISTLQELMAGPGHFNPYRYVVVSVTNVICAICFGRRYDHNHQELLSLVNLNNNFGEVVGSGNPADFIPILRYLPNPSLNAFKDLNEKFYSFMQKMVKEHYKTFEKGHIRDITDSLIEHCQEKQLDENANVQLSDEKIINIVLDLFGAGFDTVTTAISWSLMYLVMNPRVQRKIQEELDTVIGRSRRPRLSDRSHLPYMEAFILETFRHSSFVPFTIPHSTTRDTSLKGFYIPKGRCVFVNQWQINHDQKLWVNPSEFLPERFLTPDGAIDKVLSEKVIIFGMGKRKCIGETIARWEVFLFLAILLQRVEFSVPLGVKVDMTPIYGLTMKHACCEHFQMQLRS
Kind of series: Inhibition of human CYP1A1 expressed in Escherichia coli DH5alpha coexpressing human NADPH P450 reductase using 7-ethoxyresorufin as substrate in presence of NADPH by fluorimetric analysis. The format is ADME.

Series [3] has as its target T1, Cytochrome P450 1B1. The experiment in a line: Inhibition of recombinant human CYP1B1 expressed in supersomes coexpressing NADPH-CYP reductase using 7-ethoxyresorufin as substrate after 15 mins in presence of NADP+ by Lineweaver-Burk plot analysis.
In series [4] the target is T1, Cytochrome P450 1B1. The experiment in a line: Inhibition of recombinant CYP1B1 (unknown origin) expressed in supersomes coexpressing NADPH-CYP reductase using 7-ethoxyresorufin as substrate after 15 mins in presence of NADP+ by fluorescence spectrophotometric analysis.
The target of series [5] is T2, Cytochrome P450 1A1. Kind of series: Inhibition of recombinant CYP1A1 (unknown origin) expressed in Escherichia coli DH5alphaF'Iq coexpressing human NADPH-P450 reductase using E2-d4 as substrate after 10 mins in presence of NADP+. The format is ADME.
Series [6] concerns the target T1, Cytochrome P450 1B1. The experiment in a line: Inhibition of recombinant CYP1B1 (unknown origin) expressed in Escherichia coli DH5alphaF'Iq coexpressing human NADPH-P450 reductase using E2-d4 as substrate after 10 mins in presence of NADP+.
Series [7] addresses T1, Cytochrome P450 1B1. Kind of series: Inhibition of CYP1B1 (unknown origin) expressed in Escherichia coli DH5alpha coexpressing human NADPH-P450 reductase using 7-Ethoxyresorufin as substrate up to 6 mins in presence of NADP+ by spectrofluorometric analysis.
The target of series [8] is T1, Cytochrome P450 1B1. The experiment in a line: Inhibition of recombinant CYP1B1 (unknown origin) expressed in supersomes coexpressing NADPH-CYP reductase using 7-ethoxyresorufin as substrate after 15 mins in presence of NADP+ by Lineweaver-Burk plot analysis.
Series [9] deals with T2, Cytochrome P450 1A1. Kind of series: Inhibition of recombinant human CYP1A1 expressed in supersomes using 7-ethoxyresorufin O-deethylation as substrate after 5 mins in presence of NADP+ by spectrofluorimetric analysis. The format is ADME.
Series [10] has as its target T3, Cytochrome P450 1A2 (Homo sapiens, UniProt P05177).
T3 sequence (P05177 whole entry): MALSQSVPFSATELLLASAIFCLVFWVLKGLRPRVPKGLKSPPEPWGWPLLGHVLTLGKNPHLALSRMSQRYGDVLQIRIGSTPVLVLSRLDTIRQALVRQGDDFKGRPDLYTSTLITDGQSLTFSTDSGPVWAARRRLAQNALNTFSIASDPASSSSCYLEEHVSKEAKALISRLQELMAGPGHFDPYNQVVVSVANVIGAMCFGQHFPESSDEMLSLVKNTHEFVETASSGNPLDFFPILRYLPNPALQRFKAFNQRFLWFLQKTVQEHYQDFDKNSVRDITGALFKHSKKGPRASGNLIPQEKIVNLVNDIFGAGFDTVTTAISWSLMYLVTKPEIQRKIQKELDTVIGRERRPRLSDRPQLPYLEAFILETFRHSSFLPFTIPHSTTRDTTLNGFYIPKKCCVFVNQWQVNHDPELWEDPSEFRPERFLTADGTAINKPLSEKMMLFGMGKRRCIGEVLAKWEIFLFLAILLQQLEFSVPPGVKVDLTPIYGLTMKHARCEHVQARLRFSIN
Kind of series: Inhibition of recombinant human CYP1A2 expressed in supersomes using 7-ethoxyresorufin O-deethylation as substrate after 5 mins in presence of NADP+ by spectrofluorimetric analysis. The format is ADME.

In series [11] the target is T1, Cytochrome P450 1B1. The experiment in a line: Competitive inhibition of CYP1B1 (unknown origin) expressed in yeast microsomes using (-)benzo[a]pyrene-7R-trans-7,8-dihyrodiol (B[a]P-7,8-diol) as substrate.
In series [12] the target is T2, Cytochrome P450 1A1. Kind of series: Inhibition of CYP1A1 (unknown origin) expressed in Escherichia coli DH5alpha coexpressing human NADPH-P450 reductase using 7-Ethoxyresorufin as substrate up to 6 mins in presence of NADP+ by spectrofluorometric analysis. The format is ADME.
Series [13] addresses T3, Cytochrome P450 1A2. Kind of series: Inhibition of CYP1A2 (unknown origin) expressed in Escherichia coli DH5alpha coexpressing human NADPH-P450 reductase using 7-Ethoxyresorufin as substrate up to 6 mins in presence of NADP+ by spectrofluorometric analysis. The format is ADME.
Series [14] has as its target T1, Cytochrome P450 1B1. The experiment in a line: Inhibition of recombinant human CYP1B1 expressed in Escherichia coli coexpressing human NADPH-cytochrome P450 reductase using 7-ethoxyresorufin as substrate by fluorescence spectrophotometric analysis.
Series [15] deals with T1, Cytochrome P450 1B1. The experiment in a line: Inhibition of CYP1B1 in […] recombinant human cytochrome P450 oxidoreductase using 7-ethoxyresorufin as substrate after 3 mins in presence of NADP+ by fluorescence assay. A general note: Liver microsomes are a subcellular fraction often used to study metabolism.
Series [16] addresses T1, Cytochrome P450 1B1. The experiment in a line: Inhibition of human CYP1B1 expressed in Escherichia coli DH5alpha coexpressing human NADPH P450 reductase using 7-ethoxyresorufin as substrate in presence of NADP+ by spectrofluorometeric analysis.

Turning to `C#Cc1cc2ccc3cccc4ccc(c1)c2c34`, the pIC50 in [1] is 7.52; in [2] it was 6.82.
For the compound `Oc1ccc(/C=C/c2cc(O)cc(O)c2)cc1` [RESVERATROL], the pKi in [3] was 6.10; in [4] it was 4.95.
On to `COc1cc2c(cc1O)[C@H]1CC[C@]3(C)[C@@H](O)CC[C@H]3[C@@H]1CC2`, for which the pKi in series [5] is 4.16; in series [6], 4.55.
On the same counts, the results for `COc1cc2c(cc1O)CC[C@@H]1[C@@H]2CC[C@]2(C)[C@@H](O)CC[C@@H]12` [2-METHOXYESTRADIOL] are 4.06 and 4.44.
For `CC[C@H]1OC(=O)[C@H](C)[C@@H](O[C@H]2C[C@@](C)(OC)[C@@H](O)[C@H](C)O2)[C@H](C)[C@@H](O[C@@H]2O[C@H](C)C[C@H](N(C)C)[C@H]2O)[C@](C)(O)C[C@@H](C)C(=O)[C@H](C)[C@@H](O)[C@]1(C)O` [ERYTHROMYCIN], in series [7], the pIC50 is 4.40.
For the compound `COc1cccc(/C=C/c2ccc(SC)cc2)c1`, the figures for the pKi in [4] and in series [8] were 6.30 and 7.52, respectively.
For `COc1ccccc1/C=C/c1ccc(SC)cc1` the same measures were 6.52 and 7.39.
For `Cc1cc(Cl)c2c(c1N)C(=O)c1ccccc1C2=O`, the figures for the pIC50 in series [9] and in [10] were 6.40 and 6.28, respectively.
In the case of `COc1c2ccoc2c(OC)c2oc(=O)ccc12` [ISOPIMPINELLIN], the pKi in [11] was 4.96.
As for `N#C[Se]Cc1cccc(C[Se]C#N)c1`, the pIC50 in [12] was 6.35 to 7.00; in series [7] it was 6.57 to 6.89; in [13], 5.89 to 6.70.
Consider `O=C1c2ccccc2C(=O)c2c1ccc(O)c2O` [ATHRAQUINONES A], for which, in series [14], the pKi is 6.30.
Take `CNCCC(Oc1ccc(C(F)(F)F)cc1)c1ccccc1` (stereo not given) [FLUOXETINE]: the pIC50 in series [7] was 3.32.
Regarding `COc1ccc(-c2coc3cc(O)cc(O)c3c2=O)cc1` [BIOCHANIN], the pKi in [15] was 5.72.
Take `N#C[Se]Cc1ccccc1C[Se]C#N`: the pIC50 in series [12] was 6.35 to 7.00; in [7], 6.57 to 6.89; in series [13], 5.89 to 6.70.
In the case of `COc1ccc(-c2cc(=O)c3c(O)cc(O)cc3o2)cc1OC`, in [16], the pIC50 is 7.72.
Regarding `Cc1cc(O)c2c(c1)C(=O)c1cc(O)cc(O)c1C2=O` [EMODIN], the pIC50 in series [10] is 5.43.
Consider `N#C[Se]Cc1ccc(C[Se]C#N)cc1`, for which the pIC50 was 6.35 to 7.00 in series [12], 6.57 to 6.89 in [7] and 5.89 to 6.70 in series [13].

As a reminder, the pIC50 is the IC50 on a negative log10 scale, so that one unit is a factor of ten. For orientation: pKi means the negative decadic logarithm of the Ki, by convention in mol/L.
